Data from US12331026B2 (NiKang Therapeutics, Inc., priority 2022, dated 2025).

Each compound was assayed against T1, CDK2 (Homo sapiens, UniProt P24941) (assay: Phospho-RB measurement in OVCAR3 cells (HTRF phospho-RB S807/811)). Conditions: phosphorylation of RB protein at S807/811, HTRF, 24 h compound treatment, 0.3 to 10,000 nM, read-out: pRb (uM).
T1 construct: endogenous in cells; host or cells: OVCAR3 cells
Type: cell-based
Method: The ability of compounds of Formula (I) to inhibit CDK2 was determined in OVCAR3 cells. Phosphorylation of RB protein at S807/811 were measured using HTRF phospho-RB cellular kits (Cat #64RBS807PEG) from Cisbio.
On Day 1, OVCAR3 cells were seeded into 96-well tissue-culture treated plates at 20,000 cells/well in 200 μL and incubated overnight at 37° C. in CO2 atmosphere. On Day 2, the cells were treated with test compounds at concentrations from 0.3 to 10,000 nM using HP D300 digital dispenser. Twenty-four hours after compound treatment, cell culture media was removed by flicking the plate and tapping the plate against clean paper towel. Immediately 30 μL 1× lysis buffer was supplemented from the kit and the plate was incubated at room temperature on shaker for 30 min. After homogenization by pipetting up and down, 8 μL cell lysate from 96-well cell culture plate was transferred to 384-well small volume white detection plate. 2 μL premixed detection solution was added and the plate was covered with sealer. To prepare the detection solution, d2 conjugated-phospho-RB antibody and Eu-cryptate conjugated phosphor-RB antibody were diluted into detection buffer following manufacturer's instruction.
Detection plates were incubated for 4 h at room temperature and read on ClarioStar (BMG Labtech) in TR-FRET mode ([…]). The TR-FRET ratio (665 nM1/620 nM) was plotted against the compound concentration and normalized to DMSO controls. Half maximal inhibition concentration (IC50) values are calculated with a four-parameter logistic fit using GraphPad Prism (version 8; La Jolla, CA).

Structure (SMILES)	IC50
O=S1(=O)CC2(CC(Nc3nccc(-c4sc(C56CC(C(F)(F)F)(C5)C6)nc4-c4cccc(NS(=O)(=O)c5c(F)cccc5F)c4F)n3)C2)C1 [Example 39, N-(3-(5-(2-((2,2-dioxido-2-thiaspiro[3.3]heptan-6-yl)amino)-pyrimidin-4-yl)-2-(3-(trifluoromethyl)bicyclo[1.1.1]pentan-1-yl)thiazol-4-yl)-2-fluorophenyl)-2,6-difluorobenzenesulfonamide]	0.35 µM
CN1CCC(C)(c2nc(-c3cccc(NS(=O)(=O)c4c(F)cccc4F)c3F)c(-c3ccnc(NC4CC5(C4)CS(=O)(=O)C5)n3)s2)CC1 [Example 15, N-(3-(2-(1,4-dimethylpiperidin-4-yl)-5-(2-((2,2-dioxido-2-thiaspiro[3.3]heptan-6-yl)amino)pyrimidin-4-yl)thiazol-4-yl)-2-fluorophenyl)-2,6-difluorobenzenesulfonamide]	3.2 µM
COc1cccc(C(F)(F)F)c1S(=O)(=O)Nc1cccc(-c2nc(N3C4CCC3CN(C)C4)sc2-c2ccnc(NC3CC4(C3)CS(=O)(=O)C4)n2)c1F [Example 74, N-(3-(5-(2-((2,2-dioxido-2-thiaspiro[3.3]heptan-6-yl)amino)-pyrimidin-4-yl)-2-(3-methyl-3,8-diazabicyclo[3.2.1]octan-8-yl)thiazol-4-yl)-2-fluorophenyl)-2-methoxy-6-(trifluoromethyl)benzenesulfonamide]	0.63 µM
O=S1(=O)C[C@@H]2[C@H](C1)[C@H]2Nc1nccc(-c2sc(N3C4CCC3CN(C3CC(F)(F)C3)C4)nc2-c2cccc(NS(=O)(=O)c3c(F)cccc3C(F)(F)F)c2F)n1 [Example 109, N-(3-(2-(3-(3,3-difluorocyclobutyl)-3,8-diazabicyclo[3.2.1]octan-8-yl)-5-(2-(((1R,5S,6r)-3,3-dioxido-3-thiabicyclo[3.1.0]hexan-6-yl)amino)pyrimidin-4-yl)thiazol-4-yl)-2-fluorophenyl)-2-fluoro-6-(trifluoromethyl)benzenesulfonamide]	0.09 µM
O=S1(=O)C[C@@H]2[C@H](C1)[C@H]2Nc1nccc(-c2sc(N3C4CCC3CN(C3CC3)C4)nc2-c2cccc(NS(=O)(=O)c3c(F)cccc3F)c2F)n1 [Example 127, N-(3-(2-(3-cyclopropyl-3,8-diazabicyclo[3.2.1]octan-8-yl)-5-(2-(((1R,5S,6r)-3,3-dioxido-3-thiabicyclo[3.1.0]hexan-6-yl)amino)-pyrimidin-4-yl)thiazol-4-yl)-2-fluorophenyl)-2,6-difluorobenzene-sulfonamide]	0.06 µM
O=S1(=O)CC2(CC(Nc3nccc(-c4sc(N5C6CCC5CN(C5COC5)C6)nc4-c4cccc(NS(=O)(=O)c5c(F)cccc5F)c4F)n3)C2)C1 [Example 144, N-(3-(5-(2-((2,2-dioxido-2-thiaspiro[3.3]heptan-6-yl)amino)-pyrimidin-4-yl)-2-(3-(oxetan-3-yl)-3,8-diazabicyclo[3.2.1]octan-8-yl)thiazol-4-yl)-2-fluorophenyl)-2,6-difluorobenzenesulfonamide]	0.24 µM
CS(=O)(=O)[C@H]1CC[C@H](Nc2nccc(-c3sc(C4(C(F)(F)F)CC4)nc3-c3cccc(NS(=O)(=O)c4c(F)cccc4C(F)(F)F)c3F)n2)CC1 [Example 104, 2-fluoro-N-(2-fluoro-3-(5-(2-(((1r,4r)-4-(methylsulfonyl)-cyclohexyl)amino)pyrimidin-4-yl)-2-(1-(trifluoromethyl)-cyclopropyl)thiazol-4-yl)phenyl)-6-(trifluoromethyl)benzenesulfonamide]	0.08 µM
CC1C2(CC(Nc3nccc(-c4sc(C56CC(C5)C6)nc4-c4cccc(NS(=O)(=O)c5c(F)cccc5F)c4F)n3)C2)C(C)S1(=O)=O (stereo not drawn) [Example 154, N-(3-(2-(bicyclo[1.1.1]pentan-1-yl)-5-(2-((1,3-dimethyl-2,2-dioxido-2-thiaspiro[3.3]heptan-6-yl)amino)pyrimidin-4-yl)thiazol-4-yl)-2-fluorophenyl)-2,6-difluorobenzenesulfonamide]	0.095 µM
CC1(C#N)CC2CCC(C1)N2c1nc(-c2cccc(NS(=O)(=O)c3c(F)cccc3C(F)(F)F)c2F)c(-c2ccnc(NC3CC4(C3)CS(=O)(=O)C4)n2)s1 (stereo not drawn) [Example 151, N-(3-(2-(3-cyano-3-methyl-8-azabicyclo[3.2.1]octan-8-yl)-5-(2-((2,2-dioxido-2-thiaspiro[3.3]heptan-6-yl)amino)pyrimidin-4-yl)thiazol-4-yl)-2-fluorophenyl)-2-fluoro-6-(trifluoromethyl)benzenesulfonamide]	0.051 µM
CS(=O)(=O)[C@H]1CC[C@H](Nc2nccc(-c3sc(C4(C(F)(F)F)CC4)nc3-c3cccc(NS(=O)(=O)c4c(Cl)cccc4C(F)(F)F)c3F)n2)CC1 [Example 133, 2-chloro-N-(2-fluoro-3-(5-(2-(((1r,4r)-4-(methylsulfonyl)-cyclohexyl)amino)pyrimidin-4-yl)-2-(1-(trifluoromethyl)-cyclopropyl)thiazol-4-yl)phenyl)-6-(trifluoromethyl)benzene-sulfonamide]	0.12 µM
O=S1(=O)CC2(CC(Nc3nccc(-c4sc(N5C6CCC5CN(C5CCOCC5)C6)nc4-c4cccc(NS(=O)(=O)c5c(F)cccc5F)c4F)n3)C2)C1 [Example 148, N-(3-(5-(2-((2,2-dioxido-2-thiaspiro[3.3]heptan-6-yl)amino)pyrimidin-4-yl)-2-(3-(tetrahydro-2H-pyran-4-yl)-3,8-diazabicyclo[3.2.1]octan-8-yl)thiazol-4-yl)-2-fluorophenyl)-2,6-difluorobenzenesulfonamide]	0.4 µM
CC1(C#N)CC(N2CC3CCC(C2)N3c2nc(-c3cccc(NS(=O)(=O)c4c(F)cccc4F)c3F)c(-c3ccnc(NC4CC5(C4)CS(=O)(=O)C5)n3)s2)C1 (stereo not drawn) [Example 49, N-(3-(2-(3-(3-cyano-3-methylcyclobutyl)-3,8-diazabicyclo-[3.2.1]octan-8-yl)-5-(2-((2,2-dioxido-2-thiaspiro[3.3]heptan-6-yl)amino)pyrimidin-4-yl)thiazol-4-yl)-2-fluorophenyl)-2,6-difluorobenzenesulfonamide]	1.13 µM
O=S1(=O)CC2(CC(Nc3nccc(-c4sc(C56CCC(CC5)CC6)nc4-c4cccc(NS(=O)(=O)c5c(F)cccc5F)c4F)n3)C2)C1 [Example 10, N-(3-(2-(bicyclo[2.2.2]octan-1-yl)-5-(2-((2,2-dioxido-2-thiaspiro[3.3]heptan-6-yl)amino)pyrimidin-4-yl)thiazol-4-yl)-2-fluorophenyl)-2,6-difluorobenzenesulfonamide]	0.055 µM
O=S1(=O)CC2(CC(Nc3nccc(-c4sc(N5C6CCC5CN(C5CCOC5)C6)nc4-c4cccc(NS(=O)(=O)c5c(F)cccc5F)c4F)n3)C2)C1 (stereo not drawn) [Example 44, N-(3-(5-(2-((2,2-dioxido-2-thiaspiro[3.3]heptan-6-yl)amino)-pyrimidin-4-yl)-2-(3-(tetrahydrofuran-3-yl)-3,8-diazabicyclo-[3.2.1]octan-8-yl)thiazol-4-yl)-2-fluorophenyl)-2,6-difluoro-benzenesulfonamide]	0.66 µM
O=S1(=O)CC2(CC(Nc3nccc(-c4sc(N5C6CCC5CNC6)nc4-c4cccc(NS(=O)(=O)c5c(F)cccc5F)c4F)n3)C2)C1 [Example 141, N-(3-(2-(3,8-diazabicyclo[3.2.1]octan-8-yl)-5-(2-((2,2-dioxido-2-thiaspiro[3.3]heptan-6-yl)amino)pyrimidin-4-yl)thiazol-4-yl)-2-fluorophenyl)-2,6-difluorobenzenesulfonamide]	6.7 µM
CN1C2CCC1CN(c1nc(-c3cccc(NS(=O)(=O)c4c(F)cccc4F)c3F)c(-c3ccnc(NC4CC5(C4)CS(=O)(=O)C5)n3)s1)C2 [Example 23, N-(3-(5-(2-((2,2-dioxido-2-thiaspiro[3.3]heptan-6-yl)amino)pyrimidin-4-yl)-2-(8-methyl-3,8-diazabicyclo[3.2.1]octan-3-yl)thiazol-4-yl)-2-fluorophenyl)-2,6-difluorobenzenesulfonamide]	1.74 µM
O=S1(=O)CC2CCC(C1)N2c1nc(-c2cccc(NS(=O)(=O)c3c(F)cccc3F)c2F)c(-c2ccnc(NC3CC4(C3)CS(=O)(=O)C4)n2)s1 [Example 48, N-(3-(5-(2-((2,2-dioxido-2-thiaspiro[3.3]heptan-6-yl)amino)-pyrimidin-4-yl)-2-(3,3-dioxido-3-thia-8-azabicyclo[3.2.1]octan-8-yl)thiazol-4-yl)-2-fluorophenyl)-2,6-difluorobenzenesulfonamide]	7.13 µM
[2H]C([2H])([2H])N1CC2CCC(C1)N2c1nc(-c2cccc(NS(=O)(=O)c3c(F)cccc3F)c2F)c(-c2ccnc(NC3CC4(C3)CS(=O)(=O)C4)n2)s1 [Example 137, N-(3-(5-(2-((2,2-dioxido-2-thiaspiro[3.3]heptan-6-yl)amino)-pyrimidin-4-yl)-2-(3-(methyl-d3)-3,8-diazabicyclo[3.2.1]octan-8-yl)thiazol-4-yl)-2-fluorophenyl)-2,6-difluorobenzenesulfonamide]	0.1 µM
